17 molecules from patent publication US8178658B2 (Dow AgroSciences, LLC, priority 2008, dated 2012) can be followed below.

In test [1] the test system is beet armyworm (BAW; Spodoptera exigua: Lepidoptera). Put plainly: 96-well microtiter plate-based high throughput (HTS) diet bioassay on beet armyworm (BAW HTS). It counts as in vivo. The note with it: for BAW HTS: 12 μg test compound per well, BAW eggs, mortality at 6 d post-treatment, mortality class; for pest or weed control at 12 µg/well, 12 µg/well: Spodoptera exigua, 144 h, read-out: BAW HTS. A digest of the protocol:
(§1)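 HTS: eggs on diet topped with 12 μg cpd/well; dark, 29° C; mortality day 6; mean of 6 reps. Tray: 3–5 L2 larvae/well; diet dosed 50 μg/cm^2; 25° C, 14:10 L:D; 6 d; mean of 8 wells. Scored as ≥50% mortality or not.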

Test [2] has the same test system. Put plainly: 128-well diet tray assay on beet armyworm (BAW 50). The following applies: for BAW 50 ug/cm2: 128-well diet tray assay, 50 μg/cm^2 of test compound on diet, second instar BAW larvae, mortality class; for pest or weed control at 50 µg/cm2, 50 µg/cm2: Spodoptera exigua, 144 h, read-out: BAW 50 ug/cm2. It counts as in vivo. Put shortly:
as §1

Setting [3] is: 96-well microtiter plate HTS diet assay.

Take `CCO[C@@H]1[C@@H](OC)[C@H](C)O[C@@H](SC(=O)Nc2ccc(-c3cn(-c4ccc(OC(F)(F)F)cc4)cn3)cc2)[C@@H]1OC` [Compound 177]: the “BAW HTS” value in test [1] (setting [3]) was “A (the compound was tested and at least 50 percent mortality was observed)”. For the same molecule, the pest or weed control at 12 µg/well, 12 µg/well in test [1] was greater than 50%. Further, in test [2], the “BAW 50 ug/cm2” value is “B (either (1) the compound was tested and less than 50 percent mortality was observed or (2) the compound was not tested)”; the pest or weed control at 50 µg/cm2, 50 µg/cm2 is less than 50%.
With `CCO[C@@H]1[C@@H](OC)[C@H](C)O[C@@H](OC(=O)Nc2ccc(C3=NN(c4ccc(OC(F)(F)F)cc4)CC3)cc2)[C@@H]1OC` [Compound 178], the “BAW HTS” value is “B (either (1) the compound was tested and less than 50 percent mortality was observed or (2) the compound was not tested)” in test [1] (96-well HTS diet assay); “B (either (1) the compound was tested and less than 50 percent mortality was observed or (2) the compound was not tested)” in test [1] (setting [3]). In test [2], the “BAW 50 ug/cm2” value was “A (the compound was tested and at least 50 percent mortality was observed)”.
Turning to `CCO[C@@H]1[C@@H](OC)[C@H](C)O[C@@H](OC(=O)Nc2ccc(C3=NN(c4ccc(OC(F)(F)C(F)(F)F)cc4)CC3)cc2)[C@@H]1OC` [Compound 179], the “BAW HTS” value in test [1] (96-well HTS diet assay) is “B (either (1) the compound was tested and less than 50 percent mortality was observed or (2) the compound was not tested)”; in test [1] (setting [3]) it was “B (either (1) the compound was tested and less than 50 percent mortality was observed or (2) the compound was not tested)”. Also, in test [2], the “BAW 50 ug/cm2” value is “A (the compound was tested and at least 50 percent mortality was observed)”.
On to `CCO[C@@H]1[C@@H](OC)[C@H](C)O[C@@H](OC(=O)Nc2ccc(C3=NOC(c4ccc(C(F)(F)F)cc4)C3)cc2)[C@@H]1OC` (stereo partly shown) [Compound 181], for which the “BAW HTS” value in test [1] (96-well HTS diet assay) was “A (the compound was tested and at least 50 percent mortality was observed)”; in test [1] (setting [3]) it was “A (the compound was tested and at least 50 percent mortality was observed)”. Besides, the “BAW 50 ug/cm2” value in test [2] is “A (the compound was tested and at least 50 percent mortality was observed)”.
`CCO[C@@H]1[C@@H](OC)[C@H](C)O[C@H](OC(=O)Nc2ccc(C3=NOC(c4ccc(C(F)(F)F)cc4)C3)cc2)[C@@H]1OC` (stereo partly shown) [Compound 182]: the “BAW HTS” value in test [1] (96-well HTS diet assay) is “B (either (1) the compound was tested and less than 50 percent mortality was observed or (2) the compound was not tested)”; in test [1] (setting [3]), “B (either (1) the compound was tested and less than 50 percent mortality was observed or (2) the compound was not tested)”. Further, the “BAW 50 ug/cm2” value in test [2] is “B (either (1) the compound was tested and less than 50 percent mortality was observed or (2) the compound was not tested)”.
Consider `CCO[C@@H]1[C@@H](OC)[C@H](C)O[C@@H](OC(=O)Nc2ccc(C3CC(c4ccc(OC(F)(F)F)cc4)=NO3)cc2)[C@@H]1OC` (stereo partly shown) [Compound 183], for which the “BAW HTS” value in test [1] (96-well HTS diet assay) is “A (the compound was tested and at least 50 percent mortality was observed)”; in test [1] (setting [3]) it was “A (the compound was tested and at least 50 percent mortality was observed)”. Moreover, the “BAW 50 ug/cm2” value in test [2] is “A (the compound was tested and at least 50 percent mortality was observed)”.
As for `CCO[C@@H]1[C@@H](OC)[C@H](C)O[C@H](OC(=O)Nc2ccc(C3CC(c4ccc(OC(F)(F)F)cc4)=NO3)cc2)[C@@H]1OC` (stereo partly shown) [Compound 184], the “BAW HTS” value in test [1] (96-well HTS diet assay) was “B (either (1) the compound was tested and less than 50 percent mortality was observed or (2) the compound was not tested)”; in test [1] (setting [3]) it was “B (either (1) the compound was tested and less than 50 percent mortality was observed or (2) the compound was not tested)”. Also, the “BAW 50 ug/cm2” value in test [2] was “B (either (1) the compound was tested and less than 50 percent mortality was observed or (2) the compound was not tested)”.
As to `CCO[C@@H]1[C@@H](OC)[C@H](C)O[C@@H](OC(=O)Nc2ccc(C3=NCC(c4ccc(OC(F)(F)F)cc4)O3)cc2)[C@@H]1OC` (stereo partly shown) [Compound 185], the “BAW HTS” value in test [1] (96-well HTS diet assay) was “B (either (1) the compound was tested and less than 50 percent mortality was observed or (2) the compound was not tested)”; in test [1] (setting [3]), “B (either (1) the compound was tested and less than 50 percent mortality was observed or (2) the compound was not tested)”. Also, in test [2], the “BAW 50 ug/cm2” value was “B (either (1) the compound was tested and less than 50 percent mortality was observed or (2) the compound was not tested)”.
Turning to `CCO[C@@H]1[C@@H](OC)[C@H](C)O[C@@H](OC(=O)Nc2ccc(C3COC(c4ccc(OC(F)(F)F)cc4)=N3)cc2)[C@@H]1OC` (stereo partly shown) [Compound 186], the “BAW HTS” value is “B (either (1) the compound was tested and less than 50 percent mortality was observed or (2) the compound was not tested)” in test [1] (96-well HTS diet assay); “B (either (1) the compound was tested and less than 50 percent mortality was observed or (2) the compound was not tested)” in test [1] (setting [3]). In test [2], the “BAW 50 ug/cm2” value was “A (the compound was tested and at least 50 percent mortality was observed)”.
Take `CCO[C@@H]1[C@@H](OC)[C@H](C)O[C@@H](OC(=O)Nc2ccc(-n3ccn(-c4ccc(OC(F)(F)F)cc4)c3=O)cc2)[C@@H]1OC` [Compound 187]: the “BAW HTS” value in test [1] (96-well HTS diet assay) was “A (the compound was tested and at least 50 percent mortality was observed)”; in test [1] (setting [3]) it was “A (the compound was tested and at least 50 percent mortality was observed)”. The “BAW 50 ug/cm2” value in test [2] is “A (the compound was tested and at least 50 percent mortality was observed)”.
With `CCO[C@@H]1[C@@H](OC)[C@H](C)O[C@@H](OC(=O)Nc2ccc(N3CCN(c4ccc(OC(F)(F)F)cc4)C3=O)cc2)[C@@H]1OC` [Compound 188], the “BAW HTS” value in test [1] (96-well HTS diet assay) is “B (either (1) the compound was tested and less than 50 percent mortality was observed or (2) the compound was not tested)”; in test [1] (setting [3]) it was “B (either (1) the compound was tested and less than 50 percent mortality was observed or (2) the compound was not tested)”. In test [2], the “BAW 50 ug/cm2” value is “A (the compound was tested and at least 50 percent mortality was observed)”.
As for `CO[C@@H]1[C@@H](OC)[C@H](C)O[C@@H](OC(=O)Nc2ccc(-n3cnc(-c4ccc(C(F)(F)F)cc4)n3)cc2Cl)[C@@H]1OC` [Compound 189, {2-chloro-4-[3-(4-trifluoromethylphenyl)-[1,2,4]triazol-1-yl]-phenyl}-carbamic acid (2S,3R,4R,5S,6S)-3,4,5-trimethoxy-6-methyl-tetrahydropyran-2-yl ester], the “BAW HTS” value in test [1] (setting [3]) is “A (the compound was tested and at least 50 percent mortality was observed)”. In test [1], the pest or weed control at 12 µg/well, 12 µg/well was greater than 50%. For the same molecule, in test [2], the “BAW 50 ug/cm2” value was “A (the compound was tested and at least 50 percent mortality was observed)”; the pest or weed control at 50 µg/cm2, 50 µg/cm2 is greater than 50%.
With `CO[C@@H]1[C@@H](OC)[C@H](C)O[C@H](OC(=O)Nc2ccc(-n3cnc(-c4ccc(C(F)(F)F)cc4)n3)cc2Cl)[C@@H]1OC` [Compound 190, {2-chloro-4-[3-(4-trifluoromethylphenyl)-[1,2,4]triazol-1-yl]-phenyl}-carbamic acid (2R,3R,4R,5S,6S)-3,4,5-trimethoxy-6-methyl-tetrahydropyran-2-yl ester], the “BAW HTS” value in test [1] (setting [3]) was “A (the compound was tested and at least 50 percent mortality was observed)”. Besides, the pest or weed control at 12 µg/well, 12 µg/well in test [1] is greater than 50%. In test [2], the “BAW 50 ug/cm2” value is “A (the compound was tested and at least 50 percent mortality was observed)”; the pest or weed control at 50 µg/cm2, 50 µg/cm2 is greater than 50%.
For the molecule `CO[C@@H]1[C@@H](OC)[C@H](C)O[C@@H](OC(=O)Nc2ccc(-c3ncn(-c4ccc(OC(F)(F)F)cc4)n3)cc2)[C@@H]1OC` [Compound 191, {4-[1-(4-trifluoromethoxyphenyl)-1H-[1,2,4]triazol-3-yl]-phenyl}-carbamic acid (2S,3R,4R,5S,6S)-3,4,5-trimethoxy-6-methyl-tetrahydropyran-2-yl ester], the “BAW HTS” value in test [1] (setting [3]) is “A (the compound was tested and at least 50 percent mortality was observed)”. Besides, in test [1], the pest or weed control at 12 µg/well, 12 µg/well is greater than 50%. Further, in test [2], the “BAW 50 ug/cm2” value was “A (the compound was tested and at least 50 percent mortality was observed)”; the pest or weed control at 50 µg/cm2, 50 µg/cm2 was greater than 50%.
As to `CCO[C@@H]1[C@@H](OC)[C@H](C)O[C@@H](OC(=O)Nc2ccc(-c3ncn(-c4ccc(C(F)(F)F)cc4)n3)cc2)[C@@H]1OC` [Compound 192], the “BAW HTS” value in test [1] (96-well HTS diet assay) was “A (the compound was tested and at least 50 percent mortality was observed)”; in test [1] (setting [3]) it was “A (the compound was tested and at least 50 percent mortality was observed)”. For the same molecule, the “BAW 50 ug/cm2” value in test [2] is “A (the compound was tested and at least 50 percent mortality was observed)”.
Turning to `CCO[C@@H]1[C@@H](OC)[C@H](C)O[C@@H](OC(=O)Nc2ccc(-c3ncn(-c4ccc(OC(F)(F)F)cc4)n3)cc2)[C@@H]1OC` [Compound 193], the “BAW HTS” value in test [1] (96-well HTS diet assay) is “B (either (1) the compound was tested and less than 50 percent mortality was observed or (2) the compound was not tested)”; in test [1] (setting [3]) it was “B (either (1) the compound was tested and less than 50 percent mortality was observed or (2) the compound was not tested)”. For the same molecule, the “BAW 50 ug/cm2” value in test [2] is “A (the compound was tested and at least 50 percent mortality was observed)”.
On to `CO[C@@H]1[C@@H](OC)[C@H](C)O[C@@H](OC(=O)Nc2ccc(-c3nc(C)n(-c4ccc(OC(F)(F)F)cc4)n3)cc2)[C@@H]1OC` [Compound 194], for which the “BAW HTS” value is “A (the compound was tested and at least 50 percent mortality was observed)” in test [1] (96-well HTS diet assay); “A (the compound was tested and at least 50 percent mortality was observed)” in test [1] (setting [3]). In test [2], the “BAW 50 ug/cm2” value was “A (the compound was tested and at least 50 percent mortality was observed)”.
